Test results taken from ChEMBL document CHEMBL5584358, “Fungal Coculture of Herpotrichia sp. and Trametes versicolor Induces Production of Diverse Metabolites with Anti-Parkinson's Neuroprotective Activity” (J Nat Prod, 2024).
Calls of active or inactive are those of the source. No cut-off for these calls is given here.

Legend:
[1] = tested on: PC-12; assay: Neuroprotective activity against MPP+-induced rat PC12 cell death assessed as upregulation of Scn4b gene expression at 1 to 10 uM preincubated for 1 hr followed by MPP+ addition and measured after 24 hrs by RNA sequencing analysis relative to control; assay type: functional; details: dose 1-10 µM; time 25 hrs
[2] = tested on: PC-12; assay: Neuroprotective activity against MPP+-induced rat PC12 cell death assessed as increase in cell viability preincubated for 1 hr followed by MPP+ addition and measured after 24 hrs by CCK-8 assay; assay type: functional, cell-based; details: dose 1-20 µM, time 25.0 hrs
[3] = tested on: PC-12; assay: Neuroprotective activity against MPP+-induced rat PC12 cell death assessed as cell viability at 20 uM preincubated for 1 hr followed by MPP+ addition and measured after 24 hrs by CCK-8 assay (reference value: 57%); assay type: functional; details: time 25 hrs, read-out: Activity
[4] = tested on: PC-12; assay: Neuroprotective activity against MPP+-induced rat PC12 cell death assessed as downregulation of Xiap gene expression at 1 to 10 uM preincubated for 1 hr followed by MPP+ addition and measured after 24 hrs by RNA sequencing analysis relative to control; assay type: functional; details: dose 1-10 µM; time 25 hrs
[5] = tested on: PC-12; assay: Neuroprotective activity against MPP+-induced rat PC12 cell death assessed as upregulation of Rph3a gene expression at 1 to 10 uM preincubated for 1 hr followed by MPP+ addition and measured after 24 hrs by RNA sequencing analysis relative to control; assay type: functional; details: dose 1-10 µM; time 25 hrs
[6] = tested on: PC-12; assay: Neuroprotective activity against MPP+-induced rat PC12 cell death assessed as upregulation of Cebpd gene expression at 1 to 10 uM preincubated for 1 hr followed by MPP+ addition and measured after 24 hrs by RNA sequencing analysis relative to control; assay type: functional; details: dose 1-10 µM; time 25 hrs
[7] = tested on: PC-12; assay: Neuroprotective activity against MPP+-induced rat PC12 cell death assessed as upregulation of Stat6 gene expression at 1 to 10 uM preincubated for 1 hr followed by MPP+ addition and measured after 24 hrs by RNA sequencing analysis relative to control; assay type: functional; details: dose 1-10 µM; time 25 hrs
[8] = tested on: PC-12; assay: Neuroprotective activity against MPP+-induced rat PC12 cell death assessed as upregulation of Cyp2d4 gene expression at 1 to 10 uM preincubated for 1 hr followed by MPP+ addition and measured after 24 hrs by RNA sequencing analysis relative to control; assay type: functional; details: dose 1-10 µM; time 25 hrs
[9] = tested on: PC-12; assay: Neuroprotective activity against MPP+-induced rat PC12 cell death assessed as upregulation of Rps27a gene expression at 1 to 10 uM preincubated for 1 hr followed by MPP+ addition and measured after 24 hrs by RNA sequencing analysis relative to control; assay type: functional; details: dose 1-10 µM; time 25 hrs
[10] = tested on: PC-12; assay: Neuroprotective activity against MPP+-induced rat PC12 cell death assessed as upregulation of Cryab gene expression at 1 to 10 uM preincubated for 1 hr followed by MPP+ addition and measured after 24 hrs by RNA sequencing analysis relative to control; assay type: functional; details: dose 1-10 µM; time 25 hrs
[11] = tested on: PC-12; assay: Neuroprotective activity against MPP+-induced rat PC12 cell death assessed as downregulation of Anxa1 gene expression at 1 to 10 uM preincubated for 1 hr followed by MPP+ addition and measured after 24 hrs by RNA sequencing analysis relative to control; assay type: functional; details: dose 1-10 µM; time 25 hrs
[12] = tested on: PC-12; assay: Neuroprotective activity against MPP+-induced rat PC12 cell death assessed as downregulation of Vnn1 gene expression at 1 to 10 uM preincubated for 1 hr followed by MPP+ addition and measured after 24 hrs by RNA sequencing analysis relative to control; assay type: functional; details: dose 1-10 µM; time 25 hrs
[13] = tested on: PC-12; assay: Neuroprotective activity against MPP+-induced rat PC12 cell death assessed as downregulation of IL33 gene expression at 1 to 10 uM preincubated for 1 hr followed by MPP+ addition and measured after 24 hrs by RNA sequencing analysis relative to control; assay type: functional; details: dose 1-10 µM; time 25 hrs
[14] = tested on: PC-12; assay: Neuroprotective activity against MPP+-induced rat PC12 cell death assessed as downregulation of Nr3c2 gene expression at 1 to 10 uM preincubated for 1 hr followed by MPP+ addition and measured after 24 hrs by RNA sequencing analysis relative to control; assay type: functional; details: dose 1-10 µM; time 25 hrs
[15] = tested on: PC-12; assay: Neuroprotective activity against MPP+-induced rat PC12 cell death assessed as downregulation of Ren gene expression at 1 to 10 uM preincubated for 1 hr followed by MPP+ addition and measured after 24 hrs by RNA sequencing analysis relative to control; assay type: functional; details: dose 1-10 µM; time 25 hrs
[16] = tested on: PC-12; assay: Neuroprotective activity against MPP+-induced rat PC12 cell death assessed as upregulation of Tnr gene expression at 1 to 10 uM preincubated for 1 hr followed by MPP+ addition and measured after 24 hrs by RNA sequencing analysis relative to control; assay type: functional; details: dose 1-10 µM; time 25 hrs
[17] = tested on: PC-12; assay: Neuroprotective activity against MPP+-induced rat PC12 cell death assessed as increase in cell viability at […] preincubated for 1 hr followed by MPP+ addition and measured after 24 hrs by CCK-8 assay; assay type: functional, cell-based; details: time 25.0 hrs
[18] = tested on: PC-12; assay: Neuroprotective activity against MPP+-induced rat PC12 cell death assessed as upregulation of Gpt gene expression at 1 to 10 uM preincubated for 1 hr followed by MPP+ addition and measured after 24 hrs by RNA sequencing analysis relative to control; assay type: functional; details: dose 1-10 µM; time 25 hrs
[19] = tested on: PC-12; assay: Neuroprotective activity against MPP+-induced rat PC12 cell death assessed as upregulation of Insr gene expression at 1 to 10 uM preincubated for 1 hr followed by MPP+ addition and measured after 24 hrs by RNA sequencing analysis relative to control; assay type: functional; details: dose 1-10 µM; time 25 hrs
[20] = tested on: PC-12; assay: Neuroprotective activity against MPP+-induced rat PC12 cell death assessed as upregulation of Ppial4d gene expression at 1 to 10 uM preincubated for 1 hr followed by MPP+ addition and measured after 24 hrs by RNA sequencing analysis relative to control; assay type: functional; details: dose 1-10 µM; time 25 hrs
[21] = tested on: PC-12; assay: Neuroprotective activity against MPP+-induced rat PC12 cell death assessed as downregulation of Tnfaip8L2 gene expression at 1 to 10 uM preincubated for 1 hr followed by MPP+ addition and measured after 24 hrs by RNA sequencing analysis relative to control; assay type: functional; details: dose 1-10 µM; time 25 hrs
[22] = tested on: PC-12; assay: Neuroprotective activity against MPP+-induced rat PC12 cell death assessed as upregulation of Rora gene expression at 1 to 10 uM preincubated for 1 hr followed by MPP+ addition and measured after 24 hrs by RNA sequencing analysis relative to control; assay type: functional; details: dose 1-10 µM; time 25 hrs
[23] = tested on: PC-12; assay: Neuroprotective activity against MPP+-induced rat PC12 cell death assessed as downregulation of Ugt1a3 gene expression at 1 to 10 uM preincubated for 1 hr followed by MPP+ addition and measured after 24 hrs by RNA sequencing analysis relative to control; assay type: functional; details: dose 1-10 µM; time 25 hrs
[24] = tested on: PC-12; assay: Neuroprotective activity against MPP+-induced rat PC12 cell death assessed as upregulation of Prkce gene expression at 1 to 10 uM preincubated for 1 hr followed by MPP+ addition and measured after 24 hrs by RNA sequencing analysis relative to control; assay type: functional; details: dose 1-10 µM; time 25 hrs
[25] = tested on: PC-12; assay: Neuroprotective activity against MPP+-induced rat PC12 cell death assessed as downregulation of Unc13d gene expression at 1 to 10 uM preincubated for 1 hr followed by MPP+ addition and measured after 24 hrs by RNA sequencing analysis relative to control; assay type: functional; details: dose 1-10 µM; time 25 hrs
[26] = tested on: PC-12; assay: Neuroprotective activity against MPP+-induced rat PC12 cell death assessed as downregulation of Ifitm3 gene expression at 1 to 10 uM preincubated for 1 hr followed by MPP+ addition and measured after 24 hrs by RNA sequencing analysis relative to control; assay type: functional; details: dose 1-10 µM; time 25 hrs

C=C1CC[C@H]2C(C)(C)[C@@H](O)C[C@@H](O)[C@]2(C)[C@H]1CO
log2FC [1]: >0.4
Activity [2]: Dose-Dependent Effect
viability at 20 µM [3]: 71%
log2FC [4]: >0.4
log2FC [5]: >0.4
log2FC [6]: >0.4
log2FC [7]: >0.4
log2FC [8]: >0.4
log2FC [9]: >0.4
log2FC [10]: >0.4
log2FC [11]: >0.4
log2FC [12]: >0.4
log2FC [13]: >0.4
log2FC [14]: >0.4
log2FC [15]: >0.4
log2FC [16]: >0.4
Activity [17]: Active
log2FC [18]: >0.4
log2FC [19]: >0.4
log2FC [20]: >0.4
log2FC [21]: >0.4
log2FC [22]: >0.4
log2FC [23]: >0.4
log2FC [24]: >0.4
log2FC [25]: >0.4
log2FC [26]: >0.4
